Assay results as given in patent US9649313B2, “Use of ITK inhibitors for the treatment of cancer” (The University of North Carolina at Chapel Hill, priority 2012, dated 2017).

Tests used:
Assay in all cases: cell-free kinase assay
Assay type in all cases: biochemical
AurA = target: T1, AurA (Homo sapiens, UniProt O14965); conditions: single inhibitor concentration
T1 construct: purchased Carna Biosciences
Text: (§1) We investigated the potency and selectivity of BI 10N against 56 kinases using a cell-free assay (Table 8A).
(§2) The selectivity of this inhibitor was investigated by testing the potency of the inhibitor at two concentrations with 53 kinases by Carna Biosciences (MA) (Table 2).

BLK = target: T2, BLK (Homo sapiens, UniProt P51451); conditions: ATP concentration at approximately the Km for ATP
T2 construct: purchased Carna Biosciences
Text: as §1, §2

CK1ε = target: T3, CK1ε (Homo sapiens, UniProt P49674); conditions: single inhibitor concentration
T3 construct: purchased Carna Biosciences
T3 sequence (P49674 whole entry): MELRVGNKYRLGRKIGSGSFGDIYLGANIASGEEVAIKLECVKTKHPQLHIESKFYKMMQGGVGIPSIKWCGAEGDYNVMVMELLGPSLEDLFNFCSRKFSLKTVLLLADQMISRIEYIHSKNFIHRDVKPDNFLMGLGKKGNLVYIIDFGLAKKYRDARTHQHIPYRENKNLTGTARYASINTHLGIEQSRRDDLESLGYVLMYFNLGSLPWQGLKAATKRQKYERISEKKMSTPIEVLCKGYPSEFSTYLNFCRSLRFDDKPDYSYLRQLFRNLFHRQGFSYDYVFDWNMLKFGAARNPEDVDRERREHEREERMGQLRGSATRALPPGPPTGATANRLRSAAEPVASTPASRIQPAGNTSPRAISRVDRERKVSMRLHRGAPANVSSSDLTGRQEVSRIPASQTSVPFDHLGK
Text: as §1, §2

DAPK1 = target: T4, DAPK1 (Homo sapiens, UniProt P53355); conditions: single inhibitor concentration
T4 construct: purchased Carna Biosciences
Text: as §1, §2

EPHA2 = target: T5, EPHA2 (Homo sapiens, UniProt P29317); conditions: single inhibitor concentration
T5 construct: purchased Carna Biosciences
T5 sequence (P29317 24-976): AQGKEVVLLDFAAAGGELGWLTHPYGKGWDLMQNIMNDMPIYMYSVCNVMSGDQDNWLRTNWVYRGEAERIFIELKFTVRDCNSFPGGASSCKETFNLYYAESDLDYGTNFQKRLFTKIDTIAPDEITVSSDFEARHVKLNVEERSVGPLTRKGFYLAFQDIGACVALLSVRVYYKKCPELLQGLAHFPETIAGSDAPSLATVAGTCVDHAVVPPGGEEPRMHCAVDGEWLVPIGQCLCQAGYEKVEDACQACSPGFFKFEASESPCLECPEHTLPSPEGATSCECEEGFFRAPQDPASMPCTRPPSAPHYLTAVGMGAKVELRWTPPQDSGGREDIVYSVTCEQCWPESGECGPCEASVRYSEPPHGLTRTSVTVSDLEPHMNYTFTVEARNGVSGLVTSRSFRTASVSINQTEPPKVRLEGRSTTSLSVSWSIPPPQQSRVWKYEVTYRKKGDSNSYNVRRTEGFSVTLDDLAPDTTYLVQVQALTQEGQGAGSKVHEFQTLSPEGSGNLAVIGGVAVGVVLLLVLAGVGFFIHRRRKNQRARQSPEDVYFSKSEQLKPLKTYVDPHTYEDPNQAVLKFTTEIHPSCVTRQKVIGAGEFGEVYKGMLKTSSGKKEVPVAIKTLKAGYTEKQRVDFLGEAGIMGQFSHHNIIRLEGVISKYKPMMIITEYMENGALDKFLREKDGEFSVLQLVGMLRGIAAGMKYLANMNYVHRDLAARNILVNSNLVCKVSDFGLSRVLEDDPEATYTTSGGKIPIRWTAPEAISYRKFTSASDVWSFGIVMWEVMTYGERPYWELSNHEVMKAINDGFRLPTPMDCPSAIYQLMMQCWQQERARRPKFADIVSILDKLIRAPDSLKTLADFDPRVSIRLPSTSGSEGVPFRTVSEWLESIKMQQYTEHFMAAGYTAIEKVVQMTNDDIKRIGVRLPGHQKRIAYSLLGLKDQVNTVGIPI
Text: as §1, §2

EPHB4 = target: T6, EPHB4 (Homo sapiens, UniProt P54760); conditions: single inhibitor concentration
T6 construct: purchased Carna Biosciences
Text: as §1, §2

Erk2 = target: T7, Erk2 (Homo sapiens, UniProt P28482); conditions: single inhibitor concentration
T7 construct: purchased Carna Biosciences
Text: as §1, §2

FGR = target: T8, FGR (Homo sapiens, UniProt P09769); conditions: ATP concentration at approximately the Km for ATP
T8 construct: purchased Carna Biosciences
Text: as §1, §2

HGK = target: T9, HGK (Homo sapiens, UniProt O95819)
T9 construct: purchased Carna Biosciences
T9 sequence (O95819 whole entry): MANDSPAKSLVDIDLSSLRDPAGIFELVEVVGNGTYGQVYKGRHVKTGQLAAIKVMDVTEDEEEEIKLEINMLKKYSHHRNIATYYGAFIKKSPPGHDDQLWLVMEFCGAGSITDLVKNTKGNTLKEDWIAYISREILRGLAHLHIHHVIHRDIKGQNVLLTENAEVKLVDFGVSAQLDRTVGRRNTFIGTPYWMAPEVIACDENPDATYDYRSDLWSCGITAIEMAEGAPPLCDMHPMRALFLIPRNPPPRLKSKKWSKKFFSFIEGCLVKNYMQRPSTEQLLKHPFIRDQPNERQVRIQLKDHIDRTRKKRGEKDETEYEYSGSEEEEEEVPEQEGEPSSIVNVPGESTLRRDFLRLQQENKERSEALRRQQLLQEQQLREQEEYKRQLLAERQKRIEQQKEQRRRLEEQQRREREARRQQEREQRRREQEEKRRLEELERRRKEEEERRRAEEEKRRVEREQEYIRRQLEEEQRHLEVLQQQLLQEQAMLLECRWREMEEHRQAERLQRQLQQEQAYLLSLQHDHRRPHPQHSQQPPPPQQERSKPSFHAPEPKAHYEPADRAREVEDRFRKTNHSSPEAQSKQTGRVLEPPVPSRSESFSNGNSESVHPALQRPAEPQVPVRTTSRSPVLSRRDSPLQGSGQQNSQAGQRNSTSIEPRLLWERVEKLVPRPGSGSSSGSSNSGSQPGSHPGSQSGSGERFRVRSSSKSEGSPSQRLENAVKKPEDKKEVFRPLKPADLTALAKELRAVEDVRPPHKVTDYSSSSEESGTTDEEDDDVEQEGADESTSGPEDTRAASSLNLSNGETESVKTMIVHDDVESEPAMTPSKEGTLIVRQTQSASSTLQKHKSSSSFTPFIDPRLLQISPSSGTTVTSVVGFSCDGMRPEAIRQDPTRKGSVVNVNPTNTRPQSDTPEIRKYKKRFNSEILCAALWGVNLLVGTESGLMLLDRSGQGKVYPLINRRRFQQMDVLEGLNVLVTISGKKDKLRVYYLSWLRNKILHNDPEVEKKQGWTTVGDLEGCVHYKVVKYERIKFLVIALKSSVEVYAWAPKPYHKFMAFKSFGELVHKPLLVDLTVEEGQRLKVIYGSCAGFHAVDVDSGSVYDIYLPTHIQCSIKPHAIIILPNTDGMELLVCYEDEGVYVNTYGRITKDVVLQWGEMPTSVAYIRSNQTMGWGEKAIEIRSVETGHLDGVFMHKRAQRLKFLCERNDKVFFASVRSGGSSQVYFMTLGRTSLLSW
Text: as §1, §2

IRAK4 = target: T10, IRAK4 (Homo sapiens, UniProt Q9NWZ3)
T10 construct: purchased Carna Biosciences
T10 sequence (Q9NWZ3 whole entry): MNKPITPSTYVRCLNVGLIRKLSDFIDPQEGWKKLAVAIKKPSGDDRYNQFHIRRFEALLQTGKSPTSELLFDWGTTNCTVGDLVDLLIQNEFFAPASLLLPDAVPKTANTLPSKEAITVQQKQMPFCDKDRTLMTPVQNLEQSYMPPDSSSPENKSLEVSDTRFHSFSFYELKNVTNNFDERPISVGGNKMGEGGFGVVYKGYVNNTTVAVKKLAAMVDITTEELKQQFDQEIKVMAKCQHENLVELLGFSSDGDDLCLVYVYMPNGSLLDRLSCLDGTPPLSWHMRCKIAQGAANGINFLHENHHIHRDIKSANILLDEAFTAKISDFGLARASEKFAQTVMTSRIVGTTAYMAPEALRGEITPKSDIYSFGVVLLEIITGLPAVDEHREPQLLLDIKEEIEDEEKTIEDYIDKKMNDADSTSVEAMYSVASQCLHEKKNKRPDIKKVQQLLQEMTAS
Text: as §1, §2

ITK = target: T11, ITK (Homo sapiens, UniProt Q08881)
T11 construct: purchased Carna Biosciences
T11 sequence (Q08881 1-620): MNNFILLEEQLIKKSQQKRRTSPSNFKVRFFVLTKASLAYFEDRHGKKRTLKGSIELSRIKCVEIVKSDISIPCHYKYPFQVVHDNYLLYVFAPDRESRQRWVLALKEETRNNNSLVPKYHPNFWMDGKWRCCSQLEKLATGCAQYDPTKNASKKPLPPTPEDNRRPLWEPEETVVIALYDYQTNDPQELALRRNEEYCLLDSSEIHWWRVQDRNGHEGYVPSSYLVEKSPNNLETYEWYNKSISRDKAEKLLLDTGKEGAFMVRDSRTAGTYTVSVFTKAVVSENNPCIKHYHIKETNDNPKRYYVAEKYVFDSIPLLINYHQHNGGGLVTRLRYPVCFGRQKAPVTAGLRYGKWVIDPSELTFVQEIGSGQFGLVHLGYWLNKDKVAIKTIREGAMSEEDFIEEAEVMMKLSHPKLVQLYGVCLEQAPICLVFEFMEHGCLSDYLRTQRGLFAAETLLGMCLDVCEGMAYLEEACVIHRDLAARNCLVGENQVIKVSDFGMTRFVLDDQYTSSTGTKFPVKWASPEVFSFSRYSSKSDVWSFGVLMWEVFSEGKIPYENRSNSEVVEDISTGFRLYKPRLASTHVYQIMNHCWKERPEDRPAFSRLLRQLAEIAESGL
Text: as §1, §2

JAK3 = target: T12, JAK3 (Homo sapiens, UniProt P52333); conditions: single inhibitor concentration
T12 construct: purchased Carna Biosciences
Text: as §1, §2

JNK2 = target: T13, JNK2 (Homo sapiens, UniProt P45984); conditions: single inhibitor concentration
T13 construct: purchased Carna Biosciences
Text: as §1, §2

MAPKAPK2 = target: T14, MAPKAPK2 (Homo sapiens, UniProt P49137); conditions: single inhibitor concentration
T14 construct: purchased Carna Biosciences
Text: as §1, §2

MET = target: T15, MET (Homo sapiens, UniProt P08581); conditions: single inhibitor concentration
T15 construct: purchased Carna Biosciences
Text: as §1, §2

MST1 = target: T16, MST1 (Homo sapiens, UniProt Q13043)
T16 construct: purchased Carna Biosciences
T16 sequence (Q13043 1-487): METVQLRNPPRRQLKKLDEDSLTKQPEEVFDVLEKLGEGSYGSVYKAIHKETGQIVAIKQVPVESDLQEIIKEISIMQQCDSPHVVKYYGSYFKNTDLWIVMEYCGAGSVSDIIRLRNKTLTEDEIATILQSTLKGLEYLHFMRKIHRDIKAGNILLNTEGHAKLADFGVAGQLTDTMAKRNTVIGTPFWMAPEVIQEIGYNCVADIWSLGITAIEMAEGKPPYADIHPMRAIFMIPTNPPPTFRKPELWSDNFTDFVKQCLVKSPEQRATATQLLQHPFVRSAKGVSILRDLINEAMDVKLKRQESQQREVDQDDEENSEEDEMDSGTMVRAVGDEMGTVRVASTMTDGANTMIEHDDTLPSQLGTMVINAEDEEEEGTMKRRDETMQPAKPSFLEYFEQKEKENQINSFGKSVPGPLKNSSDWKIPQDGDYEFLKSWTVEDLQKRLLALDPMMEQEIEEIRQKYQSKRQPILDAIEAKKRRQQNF
Text: as §1, §2

NEK2 = target: T17, NEK2 (Homo sapiens, UniProt P51955); conditions: single inhibitor concentration
T17 construct: purchased Carna Biosciences
T17 sequence (P51955 whole entry): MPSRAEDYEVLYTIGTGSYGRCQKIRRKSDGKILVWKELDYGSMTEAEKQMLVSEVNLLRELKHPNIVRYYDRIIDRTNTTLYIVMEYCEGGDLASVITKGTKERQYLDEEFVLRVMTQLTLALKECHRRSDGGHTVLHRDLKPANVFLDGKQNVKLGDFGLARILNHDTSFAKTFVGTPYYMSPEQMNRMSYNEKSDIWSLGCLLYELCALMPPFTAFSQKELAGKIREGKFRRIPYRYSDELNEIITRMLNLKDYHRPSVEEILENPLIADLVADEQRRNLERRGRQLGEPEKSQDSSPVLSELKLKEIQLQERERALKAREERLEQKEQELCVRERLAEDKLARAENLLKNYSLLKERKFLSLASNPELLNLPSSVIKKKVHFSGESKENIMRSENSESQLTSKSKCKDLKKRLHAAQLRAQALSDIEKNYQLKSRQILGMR
Text: as §1, §2

PAK2 = target: T18, PAK2 (Homo sapiens, UniProt Q13177); conditions: single inhibitor concentration
T18 construct: purchased Carna Biosciences
Text: as §1, §2

PDK1 = target: T19, PDK1 (Homo sapiens, UniProt O15530); conditions: single inhibitor concentration
T19 construct: purchased Carna Biosciences
Text: as §1, §2

PKACα = target: T20, PKACα (Homo sapiens, UniProt P17612); conditions: single inhibitor concentration
T20 construct: purchased Carna Biosciences
Text: as §1, §2

PYK2 = target: T21, PYK2 (Homo sapiens, UniProt Q14289); conditions: single inhibitor concentration
T21 construct: purchased Carna Biosciences
Text: as §1, §2

SRC = target: T22, SRC (Homo sapiens, UniProt P12931)
T22 construct: purchased Carna Biosciences
T22 sequence (P12931 whole entry): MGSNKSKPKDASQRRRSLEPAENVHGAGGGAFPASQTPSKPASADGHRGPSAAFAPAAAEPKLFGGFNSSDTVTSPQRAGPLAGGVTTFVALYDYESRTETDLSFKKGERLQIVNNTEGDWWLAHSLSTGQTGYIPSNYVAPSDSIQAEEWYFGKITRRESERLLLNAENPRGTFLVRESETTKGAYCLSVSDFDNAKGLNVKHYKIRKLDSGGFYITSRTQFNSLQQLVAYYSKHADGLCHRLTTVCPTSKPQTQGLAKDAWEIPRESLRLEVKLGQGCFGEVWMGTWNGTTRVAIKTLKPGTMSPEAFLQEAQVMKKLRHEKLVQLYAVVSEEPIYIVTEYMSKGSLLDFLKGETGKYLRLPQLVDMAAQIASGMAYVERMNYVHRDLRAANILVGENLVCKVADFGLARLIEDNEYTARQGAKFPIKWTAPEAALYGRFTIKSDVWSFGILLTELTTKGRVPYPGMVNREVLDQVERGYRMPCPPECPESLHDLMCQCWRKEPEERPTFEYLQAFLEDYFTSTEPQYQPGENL
Text: as §1, §2

TRKB = target: T23, TRKB (Homo sapiens, UniProt Q16620)
T23 construct: purchased Carna Biosciences
T23 sequence (Q16620 32-822): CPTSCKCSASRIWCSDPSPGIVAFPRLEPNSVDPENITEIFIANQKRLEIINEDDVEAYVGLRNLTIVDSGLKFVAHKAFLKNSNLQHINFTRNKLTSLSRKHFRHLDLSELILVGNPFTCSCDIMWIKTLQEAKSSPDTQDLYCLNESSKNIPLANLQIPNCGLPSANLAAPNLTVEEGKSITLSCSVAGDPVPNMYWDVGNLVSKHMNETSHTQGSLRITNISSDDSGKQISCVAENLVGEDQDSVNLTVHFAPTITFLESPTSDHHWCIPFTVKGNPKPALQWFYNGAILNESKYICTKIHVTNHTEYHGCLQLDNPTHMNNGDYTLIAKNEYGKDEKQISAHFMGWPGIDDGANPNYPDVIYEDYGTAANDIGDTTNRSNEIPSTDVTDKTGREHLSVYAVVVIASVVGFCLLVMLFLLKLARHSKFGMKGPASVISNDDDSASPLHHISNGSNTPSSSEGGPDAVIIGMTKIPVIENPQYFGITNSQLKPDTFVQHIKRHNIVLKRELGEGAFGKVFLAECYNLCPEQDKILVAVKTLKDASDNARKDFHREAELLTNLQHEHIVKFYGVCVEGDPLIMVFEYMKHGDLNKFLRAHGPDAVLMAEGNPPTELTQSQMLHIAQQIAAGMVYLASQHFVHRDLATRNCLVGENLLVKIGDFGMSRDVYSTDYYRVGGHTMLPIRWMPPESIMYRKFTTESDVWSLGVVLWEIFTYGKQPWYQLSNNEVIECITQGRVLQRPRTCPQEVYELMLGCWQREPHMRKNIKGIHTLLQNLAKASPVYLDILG
Text: as §1, §2

TYRO3 = target: T24, TYRO3 (Homo sapiens, UniProt Q06418); conditions: single inhibitor concentration
T24 construct: purchased Carna Biosciences
Text: as §1, §2

ZAP70 = target: T25, ZAP70 (Homo sapiens, UniProt P43403); conditions: ATP concentration at approximately the Km for ATP
T25 construct: purchased Carna Biosciences
Text: as §1, §2

p38α = target: T26, p38α (Homo sapiens, UniProt Q16539); conditions: single inhibitor concentration
T26 construct: purchased Carna Biosciences
Text: as §1, §2

inhibition at 0.2 µM (AurA): 15.9% | IC50 (BLK): 52.2 nM | inhibition at 0.2 µM (CK1ε): 76.2% | inhibition at 0.2 µM (DAPK1): 5.5% | inhibition at 0.2 µM (EPHA2): 7.8% | inhibition at 0.2 µM (EPHB4): 52.1% | inhibition at 0.2 µM (Erk2): -1.5% | IC50 (FGR): 2.89 nM | IC50 (HGK; Table 2, by Carna Biosciences): 12.1 nM | inhibition at 0.2 µM (HGK; single inhibitor concentration): 100% | IC50 (IRAK4; Table 2, by Carna Biosciences): 3.14 nM | inhibition at 0.2 µM (IRAK4; single inhibitor concentration): 105% | mode of inhibition (ITK; ITK): time-dependent inhibitor | IC50 (ITK; ITK, 1 mM ATP, Km ATP 6.1 μM): 1.43 nM | IC50 (ITK; ITK, ATP at approximately the Km for ATP, more potent than can be measured): < 0.5 nM | IC50 (ITK; ITK, Table 2, by Carna Biosciences): 0.486 nM | Km (ITK; ITK, calculated from IC50 at 1 mM ATP, read-out: Calculated Apparent Km for BI 10N Binding): 0.00865 nM | inhibition at 0.2 µM (ITK; ITK, single inhibitor concentration): 107% | Ki (ITK; tight binding studies, read-out: K (affinity for ITK)): 0.0086 nM | inhibition at 0.2 µM (JAK3): 75% | inhibition at 0.2 µM (JNK2): -0.1% | inhibition at 0.2 µM (MAPKAPK2): -5.2% | inhibition at 0.2 µM (MET): 4.1% | IC50 (MST1; Table 2, by Carna Biosciences): 26 nM | inhibition at 0.2 µM (MST1; single inhibitor concentration): 91.7% | inhibition at 0.2 µM (NEK2): 0.3% | inhibition at 0.2 µM (PAK2): 4.5% | inhibition at 0.2 µM (PDK1): 1.5% | inhibition at 0.2 µM (PKACα): 2.5% | inhibition at 0.2 µM (PYK2): 35.1% | IC50 (SRC; Table 2, by Carna Biosciences): 3.76 nM | inhibition at 0.2 µM (SRC; single inhibitor concentration): 99.9% | IC50 (TRKB): 1.28 nM | selectivity for ITK over TRKB (TRKB): about 10 fold | inhibition at 0.2 µM (TYRO3): 35.6% | IC50 (ZAP70): 7090 nM | inhibition at 0.2 µM (p38α): -4.1%
Structure (SMILES): CC(C)C(C)CNCc1ccc2c(c1)[nH]/c(=N\C(=O)c1ccc(C3=CN=NC3)s1)n2CC(C)(C)O (stereo not shown) [BI 10N]
